Reference: US9969763B2, “1,2,3-triazole-tethered carbohydrate-di and tri lipidated cysteine conjugates useful as vaccine adjuvants and process for preparation thereof” (Council of Scientific and Industrial Research, priority 2015, dated 2018)
Where a SMILES comes first, the peptide text is derived from it. The star is where a group is joined. X1 = CCCCCCCCCCCCCCCC(=O)OCC(C*)OC(=O)CCCCCCCCCCCCCCC; Palmitoyl = CCCCCCCCCCCCCCCC(=O)*

Tests used:
Splenocytes [1] = assay: OVA stimulated splenocyte proliferation (MTT) in immunized mice; format: in vivo, BALB/c mice; conditions: OVA antigen; mice immunized s.c., conjugates 2-80 μg, booster 14th day; MTT after 48 h
Experimental: (§1) 13.1 Preparation and immunization of the vaccine: Male BALB/c mice (Procured from laboratory animal facility of National Institute of Nutrition, Hyderabad, IAEC No. IICT/Bio/fox/PG/1/02/2013) were immunized subcutaneously with different groups according to various concentrations of conjugates covered in examples 1-12, preferably 2 to 80 μg/dose, more preferably 6 to 50 μg/dose, most preferably 8 to 40 μg/dose, along with PBS (car no. TS1006, Himedia)and antigen control. A booster dose was given on 14th day and sacrificed 2 weeks after booster.
(§2) 1.2.1 Proliferation of immune cells: Splenocytes were seeded into 96 well flat bottom microtiter plates having 1×10^5 cells/well in complete RPMI-1640 medium (cat no. AT028-1L, Himedia). Plates were incubated at 37° C., with 5% CO2 incubator. After 48 h of incubation 20 μl of Triazolyl blue Tetrazolium Bromide (MTT) (cat no. M2128, Sigma-Aldrich. St. Louis, Mo.) solution (5 mg/mL) was added to each well, incubated for next 4 h. Untransformed MTT was removed from each well by aspirating the supernatant (180 μL)and replaced with DMSO (Sigma-Aldrich, St. Louis, Mo.). The absorbance was read at 630 nm after 15 min.
All triazolyl adjuvant conjugates induced splenocyte proliferation responses at the dose of 2-80 μg.

[2] = tested on: cytokines IL-2, IL-12, IFN-γ, TNF-α, IL-10, IL-6; assay: Cytokine expression on immunization with OVA (ELISA); format: in vivo, BALB/c mice; conditions: OVA antigen
Experimental: as §1
(§3) 1.2.2 Cytokine expression on immunization: ELISA was carried out by Opti Elisa Kit (cat no. 560485, BD biosciences, USA). Briefly, 96-Well plates were coated with capture antibody dissolved in coating buffer. Wells were blocked with PBS containing 0.05% Tween-20 for 1h at RT. After blocking, 100 μL/well of supernatant was added and incubated for overnight at 4° C. After washing, biotinylated secondary antibody was added along with enzyme. Plates were incubated for 1h at RT. Then plates were washed and substrate solution was added. The reaction was stopped and the absorbance was measured at 450 nm in ELISA reader (BioTek-Elx800).

OVA antigen = assay: Antibody titre against OVA antigen and isotypes (ELISA); format: in vivo, BALB/c mice; conditions: 28th day; for IgG titer: serum anti-OVA; for IgG1 titer / IgG 2a titer: serum, OVA immunized mice
Experimental: as §1
(§4) 1.2.2 Antibody titre against OVA antigen: From the immunized mice retro-orbital sampling or retro-orbital blood was collected on 14th and 28th day before sacrifice. Serum was separated by centrifugation at 12,500 rpm for 5 min. Transferred to a clean centrifuge tube and store at −80 until used. The plates were coated with OVA (1 μg/well) in carbonate buffer. Plates were incubated at 4° C., overnight. They were then washed 3 times with PBS/Tween, and non-specific binding sites were blocked by adding 200 μl of blocking solution. Plates were incubated at room temperature for 1 h. Then 3 times wash is done, diluted standards and samples to desired concentrations in blocking solution were added to the plates. Incubate at 37° C. for 1 h or at 4° C., overnight. Plates were washed 3 times with PBS/Tween. Avidin-Horseradish Peroxidase (Av-HRP, cat no. 45210, Biolegend, USA) was diluted and added. Incubated at room temperature for 30 min. Plates were washed 3 times with PBS/Tween. Substrate was added, mix equal volumes of TMB Reagent A and B(cat no. 421101, Biolegend, USA) immediately prior to use. Plates were incubated at room temperature (4-30 min) for color development. Color reaction was stopped by adding 50 μl of stop solution. Optical density (OD) was read at 450 nm.
(§5) 1.2.3 Isotypes of antigen specific antibody: The plates were coated with diluted unlabeled capture antibody to a final concentration of 0.5-8 μg/ml. Plates were incubated at 4° C. overnight. They were then washed 3 times with PBS/Tween, and non-specific binding sites were blocked by adding 200 μl of blocking solution. Plates were incubated at room temperature for 1 h. Washing is done thrice, diluted standards and samples to desire concentrations in blocking solution were added to the plates. Incubate at room temperature for 2-4 h or at 4° C., overnight. Plates were washed 3 times with PBS/Tween. Detection antibodies were added 0.25-2 μg/ml in blocking buffer, followed by incubation at room temperature for 1 h. Plates were washed 3 times with PBS/Tween. Avidin-Horseradish Peroxidase (Av-HRP) was diluted and added. Incubated at room temperature for 30 min. Plates were washed 5 times with PBS/Tween. Substrate was added, mix equal volumes of TMB Reagent A and B immediately prior to use. Plates were incubated at room temperature (0.4-30 min) for color development. Color reaction was stopped by adding 50 μl of stop solution. Optical density (OD) was read at 450 nm.
IgG1 and IgG2a were measured by sandwich ELISA.

Splenocytes [3] = assay: HBsAg stimulated splenocyte proliferation in immunized mice; format: in vivo, BALB/c mice; conditions: HBsAg antigen; conjugates 2-80 μg
Experimental: as §2
Vaccine was formulated with Hepatitis B antigen (HBsAg, cat. No HBS-870-c, ProspecBio, Israel))alone or with various adjuvants like Pam3CSK4 and their analogues. The adjuvanticity induced by each of the vaccine is determined by antibody titre, cytokine production and proliferation of immune cells.
(§6) Male BALB/c mice were immunized with different groups according to various concentrations of (conjugates)preferably 2 to 80 μg/dose, more preferably 6 to 50 μg/dose, most preferably 8 to 40 μg/dose, along with PBS and HBsAg antigen control. A booster dose was given on 14th day and sacrificed 2 weeks after booster.
2.2.1 Proliferation of immune cells: Splenocyte proliferation was measured by the same method as described in Example 13 except that HBsAg antigen. […]

[4] = tested on: cytokines IL-2, IL-12, IFN-γ, TNF-α, IL-10, IL-6; assay: Cytokine expression on immunization with HBsAg (ELISA); format: in vivo, BALB/c mice; conditions: HBsAg antigen
Experimental: as §3, §6
2.2.2 Cytokine expression on immunization: Cytokine expression was measured by the same method as described in the Example 13 except that HBsAg antigen.

HBsAg antigen = assay: Antibody titre against HBsAg antigen (ELISA); format: in vivo, BALB/c mice; conditions: 28th day; for IgG titer: serum anti-HBsAg; for IgG1 titer / IgG 2a titer: serum, HBsAg immunized mice
Experimental: as §4, §5, §6
2.2.3 Antibody titre against HBsAg antigen: Antibody titer was determined by the same method as described in the Example 13 except that HBsAg antigen.
Antibody titres IgG, IgG1 and IgG2a were measured by sandwich ELISA.

Human TLR-2 = target: T1, Human TLR-2 (Homo sapiens, UniProt O60603); assay: Human TLR-2 reporter gene assay (NF-κB induction, SEAP); format: cell-based; conditions: HEK-Blue hTLR2 cells, 24 h
T1 construct: host or cells: HEK-Blue hTLR2 cells (HEK293-derived reporter line)
Experimental: 2.2.4 Human TLR-2 reporter gene assays (NF-κB induction): The assay was performed as per the manufacturer's instructions. HEK-Blue™ hTLR2 cells (cat no. hkb-htlr2, Invivogen, USA, 25,000 cells per well) were harvested in HEK-Blue™ selection medium containing normocin treated with the compounds and the plate were incubated at 37° C. in 5% CO2 for 24 h. SEAP (secreted embryonic alkaline phosphatase) can be observed with naked eye and determined using a spectrophotometer at 620-655 nm.

[5] = tested on: extracellular markers CD4, CD8, CD80, CD86, CD40; assay: Immunophenotyping, staining for extracellular markers (flow cytometry); format: cell-based
Experimental: 2.2.5 Immunophenotyping—Staining for extracellular markers: Staining was as per the manufacturer's protocol and run on a BD FACSVerse flow cytometer (cat nos. 557596, 553047, 560016 and 553723; BD Biosciences, USA). Compensation was established using BD Biosciences compensation beads. Post acquisition flow cytometry analysis was performed using FACS Suite software and data were represent in the mean fluorescence intensity values.

in vitro = format: cell-based; conditions: rat, NRK-49F rat kidney cells
Experimental: 2.2.6 In vitro cytotoxicity evaluation by MTT assay: Rat kidney cell line NRK-49F (NCCS, Pune) was exposed to varying doses of test compounds in the range of […], to determine the toxicity after 48 h of incubation. The colorimetric MTT assay was used to evaluate cell viability which is determined based on reduction of MTT to blue formazan crystals by the mitochondrial succinate dehydrogenase enzymes of viable cells.

rat RBCs = format: cell-based; conditions: red cells of rat
Experimental: 2.2.7 Hemolytic assay: Different concentration of test compounds were tested with fixed volume concentration of rat RBCs. After incubation for 30 min the percentage of hemolysis was determined by comparing the absorbance (k=540 nm) of the supernatant with that of distilled water as positive control.

T1 sequence (O60603 21-784): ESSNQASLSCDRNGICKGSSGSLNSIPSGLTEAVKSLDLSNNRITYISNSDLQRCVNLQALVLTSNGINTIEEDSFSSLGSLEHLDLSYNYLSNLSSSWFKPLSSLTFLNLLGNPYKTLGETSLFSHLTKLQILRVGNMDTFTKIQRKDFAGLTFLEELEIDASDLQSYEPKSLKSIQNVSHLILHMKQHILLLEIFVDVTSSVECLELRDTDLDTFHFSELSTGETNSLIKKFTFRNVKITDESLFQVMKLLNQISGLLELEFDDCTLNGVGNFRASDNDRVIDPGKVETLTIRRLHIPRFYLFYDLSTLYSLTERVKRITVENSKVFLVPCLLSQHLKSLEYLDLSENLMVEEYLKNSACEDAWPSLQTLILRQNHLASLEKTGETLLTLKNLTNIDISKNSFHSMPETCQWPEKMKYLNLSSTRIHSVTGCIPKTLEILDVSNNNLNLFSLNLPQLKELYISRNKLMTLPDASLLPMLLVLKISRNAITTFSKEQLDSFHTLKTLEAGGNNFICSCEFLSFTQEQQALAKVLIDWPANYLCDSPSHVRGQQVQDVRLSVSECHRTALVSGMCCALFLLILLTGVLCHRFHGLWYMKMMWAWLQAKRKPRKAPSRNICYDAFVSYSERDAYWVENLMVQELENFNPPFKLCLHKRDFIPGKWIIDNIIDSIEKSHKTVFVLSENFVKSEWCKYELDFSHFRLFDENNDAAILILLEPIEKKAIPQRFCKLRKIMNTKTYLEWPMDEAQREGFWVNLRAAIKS

Molecule: CCCCCCCCCCCCCCCC(=O)N[C@@H](CSCC(COC(=O)CCCCCCCCCCCCCCC)OC(=O)CCCCCCCCCCCCCCC)C(=O)N[C@@H](CO)C(=O)N[C@@H](CCCCN)C(=O)N[C@@H](CCCCN)C(=O)N[C@@H](CCCCN)C(=O)N[C@@H](CCCCN)C(=O)O (stereo partly shown) [Standard (VacciGrade Pam3Cys) control] (Palmitoyl-C(X1)SKKKK-OH; N-terminus and C-terminus assumed)
- Splenocyte proliferation (Splenocytes [1]): 200-350
- Serum cytokines IFN-γ [2]: 100 to 140 pg/mL
- Serum cytokines IL-2 [2]: 100 to 150 pg/mL
- Serum cytokines IL-6 [2]: 100 to 120 pg/mL
- Serum cytokines IL-10 [2]: 180 to 220 pg/mL
- Serum cytokines IL-12 [2]: 80 to 140 pg/mL
- Serum cytokines TNF-α [2]: 150 to 200 pg/mL
- IgG titer (OVA antigen): 102400-819200
- IgG1 titer (OVA antigen): 102400-1638400
- IgG 2a titer (OVA antigen): 102400-3276800
- Splenocyte proliferation (Splenocytes [3]): 250-500
- Serum cytokines IFN-γ [4]: 250 to 325 pg/mL
- Serum cytokines IL-2 [4]: 250 to 300 pg/mL
- Serum cytokines IL-6 [4]: 250 to 295 pg/mL
- Serum cytokines IL-10 [4]: 325 to 475 pg/mL
- Serum cytokines IL-12 [4]: 150 to 250 pg/mL
- Serum cytokines TNF-α [4]: 275 to 400 pg/mL
- IgG titer (HBsAg antigen): 204800-819200
- IgG1 titer (HBsAg antigen): 102400-409600
- IgG 2a titer (HBsAg antigen): 204800-3276800
- TLR Ligand activity, SEAP Absorbance (655 nm) (Human TLR-2): 1.2-2
- Immunophenotyping (MFI) CD4 [5]: 1400-3000 MFI
- Immunophenotyping (MFI) CD8 [5]: 2000-4000 MFI
- Immunophenotyping (MFI) CD40 [5]: 1000-2500 MFI
- Immunophenotyping (MFI) CD80 [5]: 1600-2500 MFI
- Immunophenotyping (MFI) CD86 [5]: 1200-2000 MFI
- viability at 48 h (in vitro): 95 to 100%
- % Hemolysis (rat RBCs): 2-5%

B1: OVA control: experimental weak antigen ovalbumin (cat no. A5503, Sigma-Aldrich) given alone as antigen control (protein, UniProt P01012 2-386, looked up)
Ovalbumin: GSIGAASMEFCFDVFKELKVHHANENIFYCPIAIMSALAMVYLGAKDSTRTQINKVVRFDKLPGFGDSIEAQCGTSVNVHSSLRDILNQITKPNDVYSFSLASRLYAEERYPILPEYLQCVKELYRGGLEPINFQTAADQARELINSWVESQTNGIIRNVLQPSSVDSQTAMVLVNAIVFKGLWEKAFKDEDTQAMPFRVTEQESKPVQMMYQIGLFRVASMASEKMKILELPFASGTMSMLVLLPDEVSGLEQLESIINFEKLTEWTSSNVMEERKIKVYLPRMKMEEKYNLTSVLMAMGITDVFSSSANLSGISSAESLKISQAVHAAHAEINEAGREVVGSAEAGVDAASVSEEFRADHPFLFCIKHIATNAVLFFGRCVSP
- IgG titer (OVA antigen): 6400-12800
- IgG1 titer (OVA antigen): 6400-25600
- IgG 2a titer (OVA antigen): 6400-12800
- IgG titer (HBsAg antigen): 12800-51200
- IgG1 titer (HBsAg antigen): 12800-102400
- IgG 2a titer (HBsAg antigen): 12800-51200
